{"source": "paper PMC8422652", "about": "“Neuromedin U induces an invasive phenotype in CRC cells expressing the NMUR2 receptor” (Journal of Experimental & Clinical Cancer Research : CR, 2021)", "key": {"[1]": {"tested_on": "ERK1/2 in Caco-2 NMU clones", "assay": "ERK1/2 kinase activation in Caco-2 NMU clones with inhibitor", "type": "cell-based, human", "conditions": "preincubated 1 h with 20 µM inhibitor, immunoblot, n ≥ 4", "experimental": "CRC cells were lysed with RIPA buffer (100 mM TRIS-HCl, pH 7.5, 300 mM NaCl, 0.2 % SDS with 1 % IGEPAL CA-630 and the Halt™ Protease Inhibitor Cocktail (Thermo Fisher Scientific)) with subsequent centrifugation (18,000 x g, 4 °C, 20 min). Total protein concentration in lysate was quantified by BCA method (Pierce BCA Protein Assay; Thermo Fisher Scientific). Samples were loaded and separated by SDS-PAGE (Mini-PROTEAN TGX Stain-Free Gels; Bio-Rad Laboratories, CA, USA) and transferred onto nitrocellulose membranes (Bio-Rad Laboratories). NMU protein was detected with rabbit anti-NMU antibody (Genetex, CA, USA), for ERK1/2 kinases analysis mouse anti-ERK1/2 (Santa Cruz Biotechnology, USA) and rabbit anti-pERK1/2 antibodies (Invitrogen) were used. In EVs (extracellular vesicles) purity analysis we used rabbit antibodies anti-GM130, anti-annexin V and anti-flotilin-1 (Cell Signaling Technologies, Danvers, MA, USA). Proteins used as loading controls were detected by mouse anti-β-actin, mouse anti-α-tubulin or rabbit anti-GAPDH antibody (Abcam, Cambridge, GB). We used secondary HRP-conjugated goat anti-mouse (Santa Cruz Biotechnology) or anti-rabbit antibodies (Invitrogen). The signal was detected by chemiluminescence (Thermo Fisher Scientific) with Kodak BioMax Light Film from Eastman Kodak (NY, USA). […]"}, "[2]": {"tested_on": "Caco-2 NMU1 clone", "assay": "Cell migration assay (Transwell)", "type": "cell-based, human", "conditions": "8 μm Transwell, 3 h, n = 4", "experimental": "Migration and invasion assays were performed using an 8 μm pore size Transwell system (Thermo Fischer Scientific). First, 2 × 10^5 cells, were incubated with CellTracker™ Green CMFDA Dye (Invitrogen) for 30 min at 37 °C with following washing step with PBS. Cells resuspended in 200 ul of growth medium without FBS were added inside the insert fixed in the well with 600 ul medium with 10 % FBS. For invasion assays, the chamber was pre-coated with 1 mg/ml Matrigel (Corning). Cells were incubated for 3 h (migration) or 6 h (invasion) at 37 °C. Cells on the apical side of the chamber were gently scraped off using cotton swabs, filters were washed in PBS and pictures were taken under the microscope Nikon Eclipse TE 2000-U. Pictures analysis was done with the use of FIJI image processing package."}}}
{"smiles": "COc1cccc(-c2cc(=O)c3ccccc3o2)c1N", "note": "[PD98059]", "values": [{"measurement": "Activity of the ERK1/2 signalling pathway in the presence of inhibitor", "setting": "[1]", "value": "sensitive"}, {"measurement": "Cell migration in the presence of inhibitor", "setting": "[2]", "value": "inhibited"}]}
